Assay results reported in US8497278B2, “Imidazo[1,2-a]pyridine compounds” (priority 2008, dated 2013).

What was measured:
[1] = biological target: T1, α2 subtype containing GABA-A receptors (Homo sapiens, UniProt P18507+P47869); assay: Two-electrode voltage clamp electrophysiology in Xenopus oocytes, potentiation of GABA EC20 response, α2; type: cell-based; settings: 100 nM compound; for activation at 0.1 µM: read-out: Percentage of potentiation alpha2
T1 construct: expressed in transfected cells; host or cells: Xenopus laevis oocytes, cRNA injected
T1 sequence (P47869 29-451): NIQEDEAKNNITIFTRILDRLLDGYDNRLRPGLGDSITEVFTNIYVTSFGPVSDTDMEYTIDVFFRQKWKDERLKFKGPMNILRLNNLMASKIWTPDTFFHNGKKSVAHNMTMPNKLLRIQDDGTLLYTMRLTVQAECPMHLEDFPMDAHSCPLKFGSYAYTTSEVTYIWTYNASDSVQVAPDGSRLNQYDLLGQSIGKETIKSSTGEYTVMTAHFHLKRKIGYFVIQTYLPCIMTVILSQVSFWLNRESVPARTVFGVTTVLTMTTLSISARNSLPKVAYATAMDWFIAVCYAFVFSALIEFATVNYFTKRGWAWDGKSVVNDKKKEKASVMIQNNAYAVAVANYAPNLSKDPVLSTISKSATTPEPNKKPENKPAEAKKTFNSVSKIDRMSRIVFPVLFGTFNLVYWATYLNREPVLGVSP
T1 sequence (P28472 26-473 partner): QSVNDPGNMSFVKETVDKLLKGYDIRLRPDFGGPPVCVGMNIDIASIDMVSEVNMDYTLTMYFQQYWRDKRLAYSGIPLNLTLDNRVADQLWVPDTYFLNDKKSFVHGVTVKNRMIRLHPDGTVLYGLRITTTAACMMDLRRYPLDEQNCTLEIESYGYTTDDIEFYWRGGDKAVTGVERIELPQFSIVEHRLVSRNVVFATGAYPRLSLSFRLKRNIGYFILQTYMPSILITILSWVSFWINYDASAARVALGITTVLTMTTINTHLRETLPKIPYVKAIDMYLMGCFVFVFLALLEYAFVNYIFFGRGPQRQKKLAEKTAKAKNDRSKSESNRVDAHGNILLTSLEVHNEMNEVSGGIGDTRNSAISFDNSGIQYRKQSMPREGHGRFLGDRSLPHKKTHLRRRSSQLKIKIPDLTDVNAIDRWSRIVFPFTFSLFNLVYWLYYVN
T1 sequence (P18507 40-475): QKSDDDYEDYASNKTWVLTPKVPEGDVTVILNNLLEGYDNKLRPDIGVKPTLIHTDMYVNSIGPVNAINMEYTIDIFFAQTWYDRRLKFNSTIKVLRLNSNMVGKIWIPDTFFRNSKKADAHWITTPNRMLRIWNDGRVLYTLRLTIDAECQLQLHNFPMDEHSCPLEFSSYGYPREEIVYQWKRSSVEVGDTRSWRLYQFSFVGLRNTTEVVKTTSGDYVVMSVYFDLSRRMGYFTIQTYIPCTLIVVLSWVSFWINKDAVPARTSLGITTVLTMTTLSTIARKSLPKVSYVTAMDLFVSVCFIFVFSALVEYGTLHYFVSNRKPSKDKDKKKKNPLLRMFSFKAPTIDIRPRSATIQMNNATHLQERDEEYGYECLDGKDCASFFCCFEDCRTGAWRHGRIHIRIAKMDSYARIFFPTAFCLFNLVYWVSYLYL
Experimental: (§1) Electrophysiology protocol: Oocytes were prepared from adult female Xenopus laevis frogs. cRNA encoding human α1, α2, α3, α5, β3 and γ2L GABAA receptor subunits was injected into the cytoplasm of stage 5 or 6 oocytes using the Robocyte Robot (Multi Channel Systems, Reutlingen, Germany). Two-electrode voltage clamp recordings were made in 96-well plates using the Robocyte Robot. Oocytes were impaled using recording heads with two glass electrodes containing 1.5 M potassium acetate and 0.5 M KCl and held at a membrane potential of −80 mV. Oocytes were continually perfused with a ND96 solution (96 mM NaCl, 2 mM KCl, 0.1 mM CaCl2, and 5 mM HEPES, pH 7.5) using a Gilson 222 XL Liquid Handler and Gilson Minipuls 3 Peristaltic Pump (Gilson Medical Electronics, Middleton, Wis., USA). The protocol consisted of three 20-s applications of GABA that gave a 20% of the maximum response (EC20: 60 μM) to allow for headroom to determine a baseline GABA response. To assess the potentiation, oocytes were first exposed to a single 1 μM chlordiazepoxide (CDP) as a potentiation standard. Oocytes with insufficient expression levels (currents below threshold) or insufficient γ2L subunit incorporation (judged by rapid desensitization upon GABA application, or by insufficient potentiation by CDP) were not included in analysis. Following this control application, a given oocyte was exposed to test compounds at 100 nM concentrations. Only one concentration of one compound was tested per oocyte. […] One skilled in the art will recognize that subtypes contribute to the effects of GABA-A modulators. Such that compounds favoring different subtypes can have different therapeutic effects. The magnitude of modulation, for example, partial modulators can influence the effects in vivo. “++” indicates a greater modulation that “+” so that at any given subtype “++” inducates a greater amount of modulation for that subtype. In some embodiments, modulation favoring alpha 1 relative to alpha2 and/or alpha 3 can have sedative hypnotic effects. In other embodiments, compounds with reduced selectivity of alpha 1 can express anxiolytic effects with less sedation. Compounds with selectivity for alpha 5 can have memory/cognition enhancing effects.

[2] = system: central benzodiazepine receptors; assay: Central benzodiazepine receptor binding (test of Speth et al.); settings: 1000 nM of the compound
Summary of the method: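 Radioligand binding by the Speth et al. method. Specific binding is total minus nonspecific binding, the latter measured with excess unlabelled ligand. Compounds screened at 1.0E-09, 1.0E-07 and 1.0E-05 M in single determination; values given as percent inhibition at 1000 nM compound.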

[3] = biological target: T2, α1 subtype containing GABA-A receptors (Homo sapiens, UniProt P14867+P18507); assay: Two-electrode voltage clamp electrophysiology in Xenopus oocytes, potentiation of GABA EC20 response, α1; type: cell-based; settings: 100 nM compound; for activation at 0.1 µM: read-out: Percentage of potentiation alpha1
T2 construct: expressed in transfected cells; host or cells: Xenopus laevis oocytes, cRNA injected
T2 sequence (P14867 28-456): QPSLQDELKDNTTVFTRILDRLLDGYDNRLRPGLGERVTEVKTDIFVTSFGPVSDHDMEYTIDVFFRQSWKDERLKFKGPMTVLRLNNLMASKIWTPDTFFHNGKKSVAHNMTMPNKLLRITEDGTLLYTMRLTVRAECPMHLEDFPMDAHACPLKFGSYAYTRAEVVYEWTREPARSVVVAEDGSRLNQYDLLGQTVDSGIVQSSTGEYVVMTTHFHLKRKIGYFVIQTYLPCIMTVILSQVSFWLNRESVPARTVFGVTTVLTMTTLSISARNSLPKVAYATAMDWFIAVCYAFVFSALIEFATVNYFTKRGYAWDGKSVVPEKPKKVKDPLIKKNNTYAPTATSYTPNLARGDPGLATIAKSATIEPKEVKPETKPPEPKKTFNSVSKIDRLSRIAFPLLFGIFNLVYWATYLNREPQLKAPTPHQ
T2 sequence (P28472 26-473 partner): as the sequence (P28472 26-473 partner) above
T2 sequence (P18507 40-475): as the sequence (P18507 40-475) above
Experimental: as §1

SMILES	Percentage of potentiation alpha2 [1]	% Inhibition at 1000 nM for CBZD [2]	Percentage of potentiation alpha1 [3]	activation at 0.1 µM [1] [%]	activation at 0.1 µM [3] [%]
Cc1ccc(-c2nc3ccc(C)cn3c2Cn2nc(C)cc2C)cc1 [Compound 9, 6-Methyl-3-((3,5-dimethyl-1H-pyrazol-1-yl)methyl)-2-p-tolylH-imidazo[1,2-a]pyridine]	+ (percentage of potentiation is greater than or equal to 10% but less than 50% in the presence of 100 nM of the compound)	++ (percentage of inhibition of central BZD site binding is greater than 80% in the presence of 1000 nM of the compound)	+ (percentage of potentiation is greater than or equal to 10% but less than 50% in the presence of 100 nM of the compound)		
CNC(=O)c1ncnn1Cc1c(-c2ccc(Cl)cc2)nc2ccc(Cl)cn12 [Compound 81, 2-[6-Chloro-2-(4-chloro-phenyl)-imidazo[1,2-a]pyridin-3-ylmethyl]-2H-[1,2,4]triazole-3-carboxylic acid methylamide]		++ (percentage of inhibition of central BZD site binding is greater than 80% in the presence of 1000 nM of the compound)		10 to 50	10 to 50
Cn1ccnc1Cc1c(-c2ccc(Cl)cc2)nc2ccccn12 [Compound 206, 2-(4-chlorophenyl)-3-((1-methyl-1H-imidazol-2-yl)methyl)imidazo[1,2-a]pyridine]		++ (percentage of inhibition of central BZD site binding is greater than 80% in the presence of 1000 nM of the compound)		≥ 50	≥ 50
CN(CCO)c1cncc(Cc2c(-c3ccc(Cl)cc3)nc3ccccn23)n1 [Compound 192, 2-((6-((2-(4-chlorophenyl)imidazo[1,2-a]pyridin-3-yl)methyl)pyrazin-2-yl)(methyl)amino)ethanol]		++ (percentage of inhibition of central BZD site binding is greater than 80% in the presence of 1000 nM of the compound)		10 to 50	10 to 50
O=c1nc(N2CCCC2)ccn1Cc1c(-c2ccc(Cl)cc2)nc2ccccn12 [Compound 136, 1-((2-(4-chlorophenyl)imidazo[1,2-a]pyridin-3-yl)methyl)-4-(pyrrolidin-1-yl)pyrimidin-2(1H)-one]		++ (percentage of inhibition of central BZD site binding is greater than 80% in the presence of 1000 nM of the compound)		≥ 50	10 to 50
O=c1nc(-n2cncn2)ccn1Cc1c(-c2ccc(Cl)cc2)nc2ccccn12 [Compound 138, 1-((2-(4-chlorophenyl)imidazo[1,2-a]pyridin-3-yl)methyl)-4-(1H-1,2,4-triazol-1-yl)pyrimidin-2(1H)-one]		++ (percentage of inhibition of central BZD site binding is greater than 80% in the presence of 1000 nM of the compound)		10 to 50	10 to 50
Cc1ccc(-c2nc3ccc(C)cn3c2CSc2nnc(C)s2)cc1 [Compound 179, 6-Methyl-3-(5-methyl-[1,3,4]thiadiazol-2-ylsulfanylmethyl)-2-p-tolyl-imidazo[1,2-a]pyridine]		++ (percentage of inhibition of central BZD site binding is greater than 80% in the presence of 1000 nM of the compound)		-10 to 10	-10 to 10
Fc1ccc(-c2nc3ccccn3c2Cn2nccn2)cc1 [Compound 49, 3-((2H-1,2,3-triazol-2-yl)methyl)-2-(4-fluorophenyl)H-imidazo[1,2-a]pyridine]	+ (percentage of potentiation is greater than or equal to 10% but less than 50% in the presence of 100 nM of the compound)	++ (percentage of inhibition of central BZD site binding is greater than 80% in the presence of 1000 nM of the compound)	0 (percentage of potentiation is between about 10% to about −10%)		
CN(C)CCNC1=CC(=O)N(Cc2c(-c3ccc(Cl)cc3)nc3ccccn23)C1 [Compound 237, 1-((2-(4-chlorophenyl)imidazo[1,2-a]pyridin-3-yl)methyl)-4-(2-(dimethylamino)ethylamino)-1H-pyrrol-2(5H)-one]		++ (percentage of inhibition of central BZD site binding is greater than 80% in the presence of 1000 nM of the compound)		10 to 50	-10 to 10
Cn1c(=O)ccn(Cc2c(-c3ccc(Cl)cc3)nc3ccccn23)c1=O [Compound 125, 1-((2-(4-chlorophenyl)imidazo[1,2-a]pyridin-3-yl)methyl)-3-methylpyrimidine-2,4(1H,3H)-dione]		++ (percentage of inhibition of central BZD site binding is greater than 80% in the presence of 1000 nM of the compound)		10 to 50	-10 to 10
Cc1nn(C)nc1Cc1c(-c2ccc(Cl)cc2)nc2ccc(Cl)cn12 [Compound 229, 6-Chloro-2-(4-chlorophenyl)-3-((2,5-dimethyl-2H-1,2,3-triazol-4-yl)methyl)imidazo[1,2-a]pyridine]		++ (percentage of inhibition of central BZD site binding is greater than 80% in the presence of 1000 nM of the compound)		10 to 50	10 to 50
CN(C)CCNC(=O)c1nccn1Cc1c(-c2ccc(Cl)cc2)nc2ccccn12 [Compound 78, 1-((2-(4-chlorophenyl)H-imidazo[1,2-a]pyridin-3-yl)methyl)-N-(2-(dimethylamino)ethyl)-1H-imidazole-2-carboxamide]	+ (percentage of potentiation is greater than or equal to 10% but less than 50% in the presence of 100 nM of the compound)	++ (percentage of inhibition of central BZD site binding is greater than 80% in the presence of 1000 nM of the compound)	+ (percentage of potentiation is greater than or equal to 10% but less than 50% in the presence of 100 nM of the compound)		
Clc1ccc2nc(-c3ccccc3)c(Cn3nc4ccccc4n3)n2c1 [Compound 47, 2-((6-chloro-2-phenylH-imidazo[1,2-a]pyridin-3-yl)methyl)-2H-benzo[d][1,2,3]triazole]	0 (percentage of potentiation is between about 10% to about −10%)	+ (percentage of inhibition of central BZD site binding is greater than 50% but less than 80% in the presence of 1000 nM of the compound)	0 (percentage of potentiation is between about 10% to about −10%)		
OC1CCN(c2cncc(Cc3c(-c4ccc(Cl)cc4)nc4ccccn34)n2)C1 (stereo not drawn) [Compound 191, 1-(6-((2-(4-chlorophenyl)imidazo[1,2-a]pyridin-3-yl)methyl)pyrazin-2-yl)pyrrolidin-3-ol]		++ (percentage of inhibition of central BZD site binding is greater than 80% in the presence of 1000 nM of the compound)		10 to 50	10 to 50
O=c1[nH]c(=O)n(Cc2c(-c3ccc(Cl)cc3)nc3ccccn23)cc1F [Compound 127, 1-((2-(4-chlorophenyl)imidazo[1,2-a]pyridin-3-yl)methyl)-5-fluoropyrimidine-2,4(1H,3H)-dione]		+ (percentage of inhibition of central BZD site binding is greater than 50% but less than 80% in the presence of 1000 nM of the compound)		10 to 50	-10 to 10
Cc1ccc(-c2nc3ccc(C)cn3c2Cn2cccn2)cc1 [Compound 8, 3-((1H-pyrazol-1-yl)methyl)-6-methyl-2-p-tolylH-imidazo[1,2-a]pyridine]	+ (percentage of potentiation is greater than or equal to 10% but less than 50% in the presence of 100 nM of the compound)	++ (percentage of inhibition of central BZD site binding is greater than 80% in the presence of 1000 nM of the compound)	++ (percentage of potentiation is greater than or equal to 50% in the presence of 100 nM of the compound)		
O=c1ccn(Cc2c(-c3ccc(Cl)cc3)nc3ccccn23)c(=O)[nH]1 [Compound 123, 1-((2-(4-chlorophenyl)imidazo[1,2-a]pyridin-3-yl)methyl)pyrimidine-2,4(1H,3H)-dione]		++ (percentage of inhibition of central BZD site binding is greater than 80% in the presence of 1000 nM of the compound)		10 to 50	10 to 50
